The values below come from patent US9295641B2, “Compositions containing alpha-2-adrenergic agonist components” (Allergan, Inc., priority 2000, dated 2016).

Series [1] in a line: physchem.
For series [2] the following is noted: for Solubility of Brimonidine tartrate: fifteen days. Here is the method: The effect of pH on the solubility of brimonidine tartrate in liquid formulations with and without SECs was determined. Particularly, the effect of the presence or absence of various concentrations of an exemplary SEC, sodium carboxymethylcellulose (CMC), on the solubility of brimonidine tartrate at various pH conditions was determined. The various concentrations of CMC tested with Brimonidine tartrate were 0%, 0.056%, 0.17%, 0.5%, 1.5% (w/v), see Table III.
The samples tested also contained isotonic components, buffer components, and stabilized chlorine dioxide (Purite™), Table III. Sodium carboxymethylcellulose, sodium chloride, potassium chloride, calcium chloride dihydrate, and magnesium chloride hexahydrate were USP grade. Boric acid and sodium borate decahydrate were NF grade.
Each sample (1 through 5) was brought to various points within a range of pH values from about 7 to about 10. The vials containing the sample solutions were placed on a laboratory rotator and left to equilibrate for fifteen days at 21° C. The sample solutions were filtered using a 25 mm diameter polysulfone cellulose acetate syringe type filter with 0.45 μm pore size. The filtered solutions were assayed for the amount of brimonidine tartrate in solution.
Conventional HPLC and detection techniques were used to detect and determine the concentrations of soluble brimonidine tartrate. Solubility is plotted against pH for each CMC concentration. The experimental data points were fitted to a modified Henderson-Hasselbalch equation using a nonlinear least squares routine (Deltagraph version 4.0 DeltaPoint, Inc.), See FIG. 1.

For series [3] the following is noted: 23° C. Here is the method:
The pH-solubility profile of brimonidine tartrate in an aqueous formulation (Ophthalmic Solution) was established in the pH range of about 5 to about 8 at 23° C. Table 1. […] Likewise, the temperature may be varied somewhat, for example, solubility curves may be performed at room temperature.
The formulation vehicle was prepared by first dissolving polyvinyl alcohol (PVA) in water. The PVA was added to approximately ⅓ of the required total amount of purified water with constant stirring. The slurry was stirred for 20-30 minutes and then heated to 80-95° C. with constant stirring. The mixture was removed from the heat source within 1 hour after having reached the temperature of 80-90° C. and stirred for an additional 10 minutes to ensure homogeneity (Part I). The other ingredients of the Ophthalmic Solution, except for brimonidine tartrate, were dissolved in a separate container with an additional ⅓ of the required total amount of purified water (Part II). The PVA mixture (Part I) was then quantitatively transferred to Part II using several rinse volumes of purified water. The solution was adjusted to final volume with purified water without pH adjustment.
Brimonidine tartrate was weighed and transferred to a 10 mL test tube containing 5 mL of the formulation vehicle described above. The pH of each sample was then adjusted to a desired value using dilute sodium hydroxide and/or dilute hydrochloric acid. The samples were placed in a rack on a stir plate and stirred at high speed to achieve uniform mixing for 2 days; a partition was placed between the rack and the stir plate to prevent any heat diffusion from the stir plate to the samples.
At the end of two days of stirring, the pH value of each sample was measured, and then approximately 1 mL of each sample was placed in a micro centrifuge tube (polypropylene) and centrifuged at 4,000 rpm for 10 minutes. The supernatant was filtered through a 1 μm filter unit (Whatman, […], PTFE). The first 3-4 drops of the filtrate were discarded; the rest of the filtrate was received and diluted quantitatively with HPLC mobile phase. The dilute sample was then injected directly on the HPLC column (Dupont Zorbax, 250 mm×4.6 mm, 5 μm) for brimonidine tartrate assay in order to quantify the amount of brimonidine tartrate. A control of 0.5% brimonidine tartrate was prepared in the same formulation vehicle at pH 6.3-6.5 and assayed before (untreated) and after (treated) centrifugation and filtration. This was done to evaluate the potential loss of brimonidine tartrate in these two steps of the sample preparation. To ensure reproducibility, the study was repeated on consecutive days.

The conditions of series [4]: composition including chlorite, equilibrated ten days. The protocol:
Brimonidine tartrate is added to a test tube containing a composition including chlorite. The test tube was allowed to equilibrate for ten days. Samples obtained from the test tube are analyzed by HPLC using a size exclusion column in the presence or absence of a chaotrope, such as urea.

Where two headings read alike, the source gives them in different places.

One may read the pKa as the pH at which an ionisable group is half protonated. A higher pKa goes with a weaker acid or stronger base. `Brc1c(NC2=NCCN2)ccc2nccnc12` [5-bromo-6-(2-imidozolin-2-ylamino)quinoxaline] gave a pKa in series [1] of roughly 7.4.
In the case of “5-bromo-6-(2-imidozolin-2-ylamino)quinoxaline tartrate [Brimonidine tartrate]”, the “Solubility of Brimonidine tartrate” value in series [2] (0% CMC, pH 7.11, 21° C.) was found to be 0.2064 % w/v; in series [2] (0% CMC, pH 7.68, 21° C.) it was 0.0786 % w/v; in series [2] (0% CMC, pH 8.50, 21° C.), 0.0286 % w/v; in series [2] (0% CMC, pH 10.09, 21° C.), 0.0218 % w/v; in series [2] (0.056% CMC, pH 6.67, 21° C.), 0.9302 % w/v; in series [2] (0.056% CMC, pH 7.11, 21° C.) it was 0.2828 % w/v. Moreover, the “Solubility of Brimonidine tartrate” value in series [2] (0.056% CMC, pH 7.77, 21° C.) is given as 0.0721 % w/v; in series [2] (0.056% CMC, pH 9.93, 21° C.) it was 0.0234 % w/v; in series [2] (0.17% CMC, pH 6.68, 21° C.), 1.4200 % w/v; in series [2] (0.17% CMC, pH 6.93, 21° C.) it was 0.7302 % w/v; in series [2] (0.17% CMC, pH 7.81, 21° C.), 0.0735 % w/v; in series [2] (0.17% CMC, pH 8.55, 21° C.), 0.0328 % w/v. Also, the “Solubility of Brimonidine tartrate” value in series [2] (0.17% CMC, pH 10.05, 21° C.) is listed as 0.0241 % w/v; in series [2] (0.5% CMC, pH 6.67, 21° C.), 1.4464 % w/v; in series [2] (0.5% CMC, pH 7.10, 21° C.), 0.3693 % w/v; in series [2] (0.5% CMC, pH 7.56, 21° C.), 0.1451 % w/v; in series [2] (0.5% CMC, pH 8.46, 21° C.), 0.0313 % w/v; in series [2] (0.5% CMC, pH 9.94, 21° C.) it was 0.0250 % w/v. The “Solubility of Brimonidine tartrate” value in series [2] (1.5% CMC, pH 6.68, 21° C.) came to 1.4256 % w/v; in series [2] (1.5% CMC, pH 7.35, 21° C.), 0.1904 % w/v; in series [2] (1.5% CMC, pH 8.10, 21° C.), 0.0498 % w/v; in series [2] (1.5% CMC, pH 8.67, 21° C.) it was 0.0311 % w/v; in series [2] (1.5% CMC, pH 10.11, 21° C.) it was 0.0222 % w/v. The “Soluble Brimonidine tartrate (FIG. 1)” value is given as 1000 ppm in series [2] (pH 7.5, 0% CMC); 1300 ppm in series [2] (pH 7.5, 0.056% CMC); 1300 ppm in series [2] (pH 7.5, 0.17% CMC); 1600 ppm in series [2] (pH 7.5, 0.5% CMC); “about 1400 ppm” in series [2] (pH 7.5, 1.5% CMC). Besides, the Solubility in series [3] (STUDY 1, pH 5.55, Ophthalmic Solution, theoretical concentration based on sample weight, solution clear) is recorded as > 16.44^b mgml^−1; in series [3] (STUDY 1, pH 5.92, Ophthalmic Solution) it was 13.26 mgml^−1; in series [3] (STUDY 1, pH 6.14, Ophthalmic Solution), 3.04 mgml^−1; in series [3] (STUDY 1, pH 6.57, Ophthalmic Solution), 0.755 mgml^−1; in series [3] (STUDY 1, pH 7.00, Ophthalmic Solution), 0.269 mgml^−1; in series [3] (STUDY 1, pH 7.45, Ophthalmic Solution) it was 0.117 mgml^−1. In addition, the Solubility was 0.062 mgml^−1 in series [3] (STUDY 1, pH 7.83, Ophthalmic Solution); > 20.06^b mgml^−1 in series [3] (STUDY 2, pH 5.50, Ophthalmic Solution, theoretical concentration based on sample weight, solution clear); 16.08 mgml^−1 in series [3] (STUDY 2, pH 5.92, Ophthalmic Solution); 5.01 mgml^−1 in series [3] (STUDY 2, pH 6.06, Ophthalmic Solution); 0.319 mgml^−1 in series [3] (STUDY 2, pH 6.90, Ophthalmic Solution); 0.119 mgml^−1 in series [3] (STUDY 2, pH 7.40, Ophthalmic Solution). In addition, the Solubility in series [3] (STUDY 2, pH 7.77, Ophthalmic Solution) came out at 0.063 mgml^−1; in series [3] (STUDY 2, pH 7.86, Ophthalmic Solution), 0.058 mgml^−1; in series [3] (STUDY 2, pH 7.88, Ophthalmic Solution) it was 0.054 mgml^−1. The “Formation of dimers, by apparent molecular weights of brimonidine in solution” value in series [4] is on record as “a portion of the brimonidine tartrate monomer units have conjugated to form dimmers”.
